Measured values from US20250212892A1, “USE OF THERMALLY HYDROLYZED KERATIN PEPTIDE SOLUTION IN ENHANCING THE YIELD AND QUALITY OF TEA LEAVES” (CH Biotech R&D Co., Ltd., priority 2023, published 2025).

Tested on: tea tree (Camellia Sinesis)
Assay: Spring application (soil infusion, then leaf spray twice): tea shoot production and proportion of terminal facing leaves
Format: in vivo
Conditions: urea 200× dilution
From the text: The inventors defined a unit area of 30×30 cm^2 for harvesting tea shoot and measuring weights. The inventors further defined a percentage value of cease-growing bud weight relative to the total bud weight, as indication of the increased tea leaf production without advancing the bud-aging side-effect.
One of the experiments involves first soil infusion application one week after initial harvesting, then leaf-spraying of KHP-1 500× solution twice, first time at the one-bud-with-one-leaf stage and second time at one-bud-with-two-leaf stage. In addition to a CK group, another urea application group of 200× dilution (200 kg of water to 1 kg of urea) is also tabulated. The result is shown in FIG. 1A where the tea shoot's production for the KHP-1 500× group is 32.54 g in a 900 cm^2 harvest area, higher than that of the CK group (20.86 g) and urea group (28.69 g).
This is reflected in FIG. 1B.

In the case of `NC(N)=O` [urea], the “tea shoot's production” value (900 cm^2 harvest area, FIG. 1A) is reported as 28.69 g and the “proportion of terminal facing leaves” value (FIG. 1B) is reported as 47.4%.
